US20120202794A1 (priority 2011, published 2012)

What was measured:
[1] = Cell cytotoxicity assay (MTS), CC90 as reported in Table 1, cell line not stated; format: cell-based; details: human; cell line not given
Method: Cell cytotoxicity assays. Each compound (serially diluted from 100 μM) was added to Huh7 (2×10^3 cells/well), HepG2 (2×10^3 cells/well), BxPC3 (2×10^3 cells/well), or CEM (5×10^3 cells/well) cells and allowed to incubate for 8 days at 37° C. A medium only control was used to determine the minimum absorbance value […]. At the end of the growth period, MTS dye from the CellTiter 96 Aqueous One Solution Cell Proliferation Assay kit (Promega) was added to each well and the plate was incubated for an additional 2 hours. The absorbance at 490 nm was read with a Victor3 plate reader (Perkin Elmer) using the medium only control wells as blanks. The 90% inhibition value (CC90) was determined by comparing the absorbance in wells containing cells and test compound to untreated cell control wells.

HCV Replicon 1b = assay: HCV inhibition assay, HCV replicon 1b (Clone A or ET-lunet cells; RT-PCR or luciferase reporter); format: cell-based; details: Hepatitis C virus, 96 h, HCV replicon 1b; 4 days incubation; read-out: Replicon 1b potency EC90
Method: HCV inhibition assay. Clone A or ET-lunet cells were seeded at a density of 1500 or 3000 cells per well in a 96-well plate, respectively. Test compounds serially diluted in culture medium without G418 were added to cells so that the final DMSO concentration was 0.5%. Plates were incubated at 37° C. in a 5% CO2 atmosphere for 4 days. Inhibition of HCV RNA replication was determined by real time PCR (RT-PCR) or by measuring the levels of luminescence expressed via the luciferase reporter gene encoded within the ET replicon. Briefly, for the RT-PCR assay, total RNA was extracted using the RNeasy-96 kit as recommended by the manufacturer (Qiagen, Valencia, Calif.), reversed transcribed into cDNA, and amplified using primer and probe mix for HCV 5′-NTR RNA and human ribosomal RNA (rRNA) in a one-step RT-PCR reaction as described previously (50). A relative quantification method was used to determine the extent of inhibition. The threshold cycle (Ct) of rRNA was subtracted from the Ct of HCV RNA (ΔCt). The average ΔCt of the DMSO cell controls was then subtracted from the ΔCt of the compound treated sample (ΔΔCt). Percent inhibition was determined by using the following equation: %=(1−(2^−ΔΔC^t))×100. For the luciferase-based replicon assay, luminescence was measured by using a Victor3 plate reader (Perkin-Elmer, Boston, Mass.) following the addition of Bright-Glo reagent as recommended by the manufacturer (Promega, Madison, Wis.). Percent inhibition of HCV replication was determined by comparing the change in luminescence of the drug treated wells versus the DMSO cell controls. EC50 and EC90 values, the concentrations at which 50% and 90% inhibition were achieved, were determined using the GraphPad Prism software (San Diego, Calif.).

SMILES	CC90 at 8 days [1] [nM]	EC90 (HCV Replicon 1b) [nM]
CC(C)C[C@H]1C(=O)N[C@@H](c2ccccc2)CN1C(=O)c1cc(-c2ccc(F)cc2)no1 [Compound 145]	> 10000	230
CC(C)C[C@H]1C(=O)N[C@@H](C(C)C)CN1C(=O)c1cc(-c2ccc(F)cc2)no1 [Compound 146]	> 10000	730
CSC[C@H]1CN(C(=O)c2cc(-c3ccc(F)cc3)no2)[C@@H](CC(C)C)C(=O)N1 [Compound 147]	> 10000	1270
CC(C)C[C@H]1CN(C(=O)c2nc(-c3ccc(F)cc3)no2)[C@@H](CC(C)C)C(=O)N1 [Compound 148]	> 10000	370
CCC[C@H]1CN(C(=O)c2nc(-c3ccc(F)cc3)no2)[C@@H](CC(C)C)C(=O)N1 [Compound 149]	> 10000	50
CCC[C@H]1CN(C(=O)c2nc(-c3ccccc3)no2)[C@@H](CC(C)C)C(=O)N1 [Compound 150]	> 10000	590
CC(C)C[C@H]1C(=O)N[C@@H](c2ccccc2)CN1C(=O)c1nc(-c2ccc(F)cc2)no1 [Compound 151]	> 10000	40
CC(C)C[C@H]1C(=O)N[C@@H](C2CCCC2)CN1C(=O)c1nc(-c2ccc(F)cc2)no1 [Compound 152]	> 10000	110
CC(C)C[C@H]1C(=O)N[C@@H](C(C)C)CN1C(=O)c1nc(-c2ccc(F)cc2)no1 [Compound 153]	> 10000	220
CSC[C@H]1CN(C(=O)c2nc(-c3ccc(F)cc3)no2)[C@@H](CC(C)C)C(=O)N1 [Compound 154]	> 10000	780
CC(C)C[C@H]1CN(C(=O)c2cc(-c3ccc([N+](=O)[O-])cc3)on2)[C@@H](CC(C)C)C(=O)N1 [Compound 155]	> 10000	2600
CC(C)C[C@H]1C(=O)N[C@@H](C2CCCCC2)CN1C(=O)c1cc(-c2ccc(F)cc2F)on1 [Compound 156]	> 10000	1150
CC(C)C[C@H]1C(=O)N[C@@H](C2CCCC2)CN1C(=O)c1cc(-c2ccc(F)cc2F)on1 [Compound 157]	> 10000	490
CCC[C@H]1CN(C(=O)c2cc(-c3ccc(Cl)c(F)c3)on2)[C@@H](CC(C)C)C(=O)N1 [Compound 158]	> 10000	440
CC(C)C[C@H]1C(=O)N[C@@H](C2CCCCC2)CN1C(=O)c1cc(-c2ccc(Cl)c(F)c2)on1 [Compound 159]	> 10000	710
CC(C)C[C@H]1C(=O)N[C@@H](C2CCCC2)CN1C(=O)c1cc(-c2ccc(Cl)c(F)c2)on1 [Compound 160]	> 10000	410
CCC[C@H]1CN(C(=O)c2cc(-c3ccc(F)cc3)on2)[C@@H](CC(C)C)C(=O)N1 [Compound 161]	> 10000	70
CC(C)C[C@H]1C(=O)N[C@@H](C2CCCCC2)CN1C(=O)c1cc(-c2ccc(F)cc2)on1 [Compound 162]	> 10000	1800
CC(C)C[C@H]1C(=O)N[C@@H](C2CCCC2)CN1C(=O)c1cc(-c2ccc(F)cc2)on1 [Compound 163]	> 10000	90
CCC[C@H]1CN(C(=O)c2cc(-c3ccc(F)cc3F)on2)[C@@H](CC(C)C)C(=O)N1 [Compound 165]	> 10000	340
CC(C)C[C@H]1C(=O)N[C@@H](CC2CC2)CN1C(=O)c1cc(-c2ccc(Cl)cc2)on1 [Compound 166]	> 10000	360
CC(C)C[C@H]1C(=O)N[C@@H](CC2CC2)CN1C(=O)c1cc(-c2ccc(F)cc2)on1 [Compound 167]	> 10000	450

SMILES	CC90 at 8 days [1] [nM]	EC90 (HCV Replicon 1b) [nM]
CC(C)C[C@H]1C(=O)N[C@@H](CC2CC2)CN1C(=O)c1cc(-c2cccs2)on1 [Compound 168]	> 10000	900
CCC[C@H]1CN(C(=O)c2cc(-c3cccs3)on2)[C@@H](CC(C)C)C(=O)N1 [Compound 169]	> 10000	150
CCC[C@H]1CN(C(=O)c2cc(-c3ccc(Cl)cc3)on2)[C@@H](CC(C)C)C(=O)N1 [Compound 170]	> 10000	50
CC(C)C[C@H]1C(=O)N[C@@H](C2CCCCC2)CN1C(=O)c1cc(-c2ccc(Cl)cc2)on1 [Compound 171]	> 10000	150
CC(C)C[C@H]1C(=O)N[C@@H](C2CCCCC2)CN1C(=O)c1cc(-c2cccs2)on1 [Compound 172]	> 10000	410
CC(C)C[C@H]1C(=O)N[C@@H](C2CCCC2)CN1C(=O)c1cc(-c2ccc(Cl)cc2)on1 [Compound 173]	> 10000	120
CC(C)C[C@H]1C(=O)N[C@@H](C2CCCC2)CN1C(=O)c1cc(-c2cccs2)on1 [Compound 174]	> 10000	250
CC(C)C[C@H]1C(=O)N[C@@H](C(C)C)CN1C(=O)c1cc(-c2ccc(F)cc2)on1 [Compound 175]	> 10000	170
CC(C)C[C@H]1CN(C(=O)c2cc(-c3ccc(S(C)(=O)=O)cc3)on2)[C@@H](CC(C)C)C(=O)N1 [Compound 176]	> 10000	> 20000
CC(C)C[C@H]1C(=O)N[C@@H](c2ccccc2)CN1C(=O)c1cc(-c2ccc(F)cc2)on1 [Compound 178]	> 10000	50
CC(C)C[C@H]1CN(C(=O)c2cc(-c3ccc(OC(F)(F)F)cc3)on2)[C@@H](CC(C)C)C(=O)N1 [Compound 179]	> 10000	14900
CC(C)C[C@H]1C(=O)N[C@@H](C2CC2)CN1C(=O)c1cc(-c2ccc(F)cc2)on1 [Compound 180]	> 10000	600
CC(C)C[C@H]1C(=O)N[C@@H](C(C)C)CN1C(=O)c1cc(-c2ccc(Cl)cc2)on1 [Compound 181]	> 10000	230
CSC[C@H]1CN(C(=O)c2cc(-c3ccc(Cl)cc3)on2)[C@@H](CC(C)C)C(=O)N1 [Compound 182]	> 10000	550
CC(C)C[C@H]1C(=O)N[C@@H](c2ccccc2)CN1C(=O)c1cc(-c2ccc(Cl)cc2)on1 [Compound 183]	> 10000	60
CCC[C@H]1CN(C(=O)c2cc(-c3ccc(F)c(F)c3)on2)[C@@H](CC(C)C)C(=O)N1 [Compound 184]	> 10000	140
CC(C)C[C@H]1C(=O)N[C@@H](C2CCCCC2)CN1C(=O)c1cc(-c2ccc(F)c(F)c2)on1 [Compound 185]	> 10000	610
CC(C)C[C@H]1C(=O)N[C@@H](C2CCCC2)CN1C(=O)c1cc(-c2ccc(F)c(F)c2)on1 [Compound 186]	> 10000	260
CC(C)C[C@H]1C(=O)N[C@@H](C(C)C)CN1C(=O)c1cc(-c2ccc(F)c(F)c2)on1 [Compound 187]	> 10000	620
CC(C)C[C@H]1C(=O)N[C@@H](c2ccccc2)CN1C(=O)c1cc(-c2ccc(F)c(F)c2)on1 [Compound 188]	> 10000	180
CCC[C@H]1CN(C(=O)c2cc(-c3ccc(F)cc3)no2)[C@@H](CC(C)C)C(=O)N1 [Compound 189]	> 10000	110
